From PubChem BioAssay (NCI)
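Results reflect a 48-hour exposure of cells in 96-well plates to compound at five concentrations. TGI marks complete inhibition of growth.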

Assays:
Test in all cases: growth of human tumour cells (NCI), 48 h
RPMI-8226 leukemia = test system: RPMI-8226 leukemia
A498 renal = test system: A498 renal
BT-549 breast = test system: BT-549 breast
MCF7 breast = test system: MCF7 breast
NCI/ADR-RES ovarian = test system: NCI/ADR-RES ovarian
HOP-92 NSCLC = test system: HOP-92 NSCLC
PC-3 prostate = test system: PC-3 prostate
SN12C renal = test system: SN12C renal
MDA-N = test system: MDA-N
MALME-3M melanoma = test system: MALME-3M melanoma
SF-539 CNS = test system: SF-539 CNS
OVCAR-5 ovarian = test system: OVCAR-5 ovarian
SK-OV-3 ovarian = test system: SK-OV-3 ovarian
ACHN renal = test system: ACHN renal
UO-31 renal = test system: UO-31 renal
NCI-H23 lung = test system: NCI-H23 lung
NCI-H522 lung = test system: NCI-H522 lung
OVCAR-8 ovarian = test system: OVCAR-8 ovarian
KM12 colon = test system: KM12 colon
HS 578T breast = test system: HS 578T breast
SK-MEL-5 melanoma = test system: SK-MEL-5 melanoma
NCI-H460 lung = test system: NCI-H460 lung
HCC-2998 colon = test system: HCC-2998 colon
SF-268 CNS = test system: SF-268 CNS
HOP-62 NSCLC = test system: HOP-62 NSCLC
TK-10 renal = test system: TK-10 renal
CCRF-CEM leukemia = test system: CCRF-CEM leukemia
MOLT-4 leukemia = test system: MOLT-4 leukemia
786-0 renal = test system: 786-0 renal
MDA-MB-231 breast = test system: MDA-MB-231 breast
A549 NSCLC = test system: A549 NSCLC
UACC-62 melanoma = test system: UACC-62 melanoma
SF-295 CNS = test system: SF-295 CNS
HCT-15 colon = test system: HCT-15 colon
SK-MEL-28 melanoma = test system: SK-MEL-28 melanoma
RXF 393 renal = test system: RXF 393 renal
EKVX NSCLC = test system: EKVX NSCLC
SNB-19 CNS = test system: SNB-19 CNS
OVCAR-3 ovarian = test system: OVCAR-3 ovarian
HCT-116 colon = test system: HCT-116 colon
UACC-257 melanoma = test system: UACC-257 melanoma
SR leukemia = test system: SR leukemia
HT29 colon = test system: HT29 colon
NCI-H226 lung = test system: NCI-H226 lung
COLO 205 colon = test system: COLO 205 colon
U251 CNS = test system: U251 CNS
CAKI-1 renal = test system: CAKI-1 renal
M14 melanoma = test system: M14 melanoma
LOX IMVI melanoma = test system: LOX IMVI melanoma
T-47D breast = test system: T-47D breast
SK-MEL-2 melanoma = test system: SK-MEL-2 melanoma
SW-620 colon = test system: SW-620 colon
K-562 leukemia = test system: K-562 leukemia
OVCAR-4 ovarian = test system: OVCAR-4 ovarian
HL-60(TB) leukemia = test system: HL-60(TB) leukemia
IGROV1 ovarian = test system: IGROV1 ovarian
DU-145 prostate = test system: DU-145 prostate
MDA-MB-435 = test system: MDA-MB-435
SNB-75 CNS = test system: SNB-75 CNS

For `Cn1ncc(NCCn2cnc3c2c(=O)n(C)c(=O)n3C)c(Cl)c1=O`, the TGI (RPMI-8226 leukemia) was > 100 µM, the TGI (A498 renal) was > 100 µM and the TGI (BT-549 breast) was > 100 µM. The TGI (MCF7 breast) was > 100 µM, the TGI (NCI/ADR-RES ovarian) was > 100 µM and the TGI (HOP-92 NSCLC) was > 100 µM. For the same compound, the TGI (PC-3 prostate) was > 100 µM, the TGI (SN12C renal) was > 100 µM and the TGI (MDA-N) was > 100 µM. For the same compound, the TGI (MALME-3M melanoma) was > 100 µM, the TGI (SF-539 CNS) was > 100 µM and the TGI (OVCAR-5 ovarian) was > 100 µM. The TGI (SK-OV-3 ovarian) was > 100 µM, the TGI (ACHN renal) was > 100 µM and the TGI (UO-31 renal) was > 100 µM. For the same compound, the TGI (NCI-H23 lung) was > 100 µM, the TGI (NCI-H522 lung) was > 100 µM and the TGI (OVCAR-8 ovarian) was > 100 µM. The TGI (KM12 colon) was > 100 µM, the TGI (HS 578T breast) was > 100 µM and the TGI (SK-MEL-5 melanoma) was > 100 µM. For the same compound, the TGI (NCI-H460 lung) was > 100 µM, the TGI (HCC-2998 colon) was > 100 µM and the TGI (SF-268 CNS) was > 100 µM. The TGI (HOP-62 NSCLC) was > 100 µM, the TGI (TK-10 renal) was > 100 µM and the TGI (CCRF-CEM leukemia) was > 100 µM. The TGI (MOLT-4 leukemia) was > 100 µM, the TGI (786-0 renal) was > 100 µM and the TGI (MDA-MB-231 breast) was > 100 µM. The TGI (A549 NSCLC) was > 100 µM, the TGI (UACC-62 melanoma) was > 100 µM and the TGI (SF-295 CNS) was > 100 µM. The TGI (HCT-15 colon) was > 100 µM, the TGI (SK-MEL-28 melanoma) was > 100 µM and the TGI (RXF 393 renal) was > 100 µM. The TGI (EKVX NSCLC) was > 100 µM, the TGI (SNB-19 CNS) was > 100 µM and the TGI (OVCAR-3 ovarian) was > 100 µM. For the same compound, the TGI (HCT-116 colon) was > 100 µM, the TGI (UACC-257 melanoma) was > 100 µM and the TGI (SR leukemia) was > 100 µM. For the same compound, the TGI (HT29 colon) was > 100 µM, the TGI (NCI-H226 lung) was > 100 µM and the TGI (COLO 205 colon) was > 100 µM. For the same compound, the TGI (U251 CNS) was > 100 µM, the TGI (CAKI-1 renal) was > 100 µM and the TGI (M14 melanoma) was > 100 µM. For the same compound, the TGI (LOX IMVI melanoma) was > 100 µM, the TGI (T-47D breast) was > 100 µM and the TGI (SK-MEL-2 melanoma) was > 100 µM. For the same compound, the TGI (SW-620 colon) was > 100 µM, the TGI (K-562 leukemia) was > 100 µM and the TGI (OVCAR-4 ovarian) was > 100 µM. For the same compound, the TGI (HL-60(TB) leukemia) was > 100 µM, the TGI (IGROV1 ovarian) was > 100 µM and the TGI (DU-145 prostate) was > 100 µM. The TGI (MDA-MB-435) was > 100 µM.

Compound `O=S(=O)(Cc1nc2ccccc2s1)c1nc2ccccc2s1` has a TGI (RPMI-8226 leukemia) of 37 µM, a TGI (A498 renal) of 38.6 µM and a TGI (BT-549 breast) of 34.1 µM. The TGI (MCF7 breast) was 37.1 µM, the TGI (NCI/ADR-RES ovarian) was > 100 µM and the TGI (HOP-92 NSCLC) was 28.1 µM. It also gave a TGI (PC-3 prostate) of 32.6 µM, a TGI (SN12C renal) of 35.2 µM and a TGI (MDA-N) of 39.5 µM. The TGI (MALME-3M melanoma) was 24.9 µM, the TGI (SF-539 CNS) was 43.7 µM and the TGI (OVCAR-5 ovarian) was 39.4 µM. For the same compound, the TGI (SK-OV-3 ovarian) was > 100 µM, the TGI (ACHN renal) was 33 µM and the TGI (UO-31 renal) was 31.4 µM. It also gave a TGI (NCI-H23 lung) of 38.9 µM, a TGI (NCI-H522 lung) of 33.9 µM and a TGI (OVCAR-8 ovarian) of 55.7 µM. It also gave a TGI (KM12 colon) of 35.4 µM, a TGI (HS 578T breast) of 79.3 µM and a TGI (SK-MEL-5 melanoma) of 25.6 µM. The TGI (NCI-H460 lung) was > 100 µM, the TGI (HCC-2998 colon) was 30.2 µM and the TGI (SF-268 CNS) was 42.2 µM. The TGI (HOP-62 NSCLC) was > 100 µM, the TGI (TK-10 renal) was 35.7 µM and the TGI (CCRF-CEM leukemia) was 23.7 µM. It also gave a TGI (MOLT-4 leukemia) of 39.9 µM, a TGI (786-0 renal) of 34.1 µM and a TGI (MDA-MB-231 breast) of 34 µM. The TGI (A549 NSCLC) was 95 µM, the TGI (UACC-62 melanoma) was 44.2 µM and the TGI (SF-295 CNS) was 64.2 µM. It also gave a TGI (HCT-15 colon) of 32 µM, a TGI (SK-MEL-28 melanoma) of 30.5 µM and a TGI (RXF 393 renal) of 59.6 µM. It also gave a TGI (EKVX NSCLC) of 46.2 µM, a TGI (SNB-19 CNS) of 44 µM and a TGI (OVCAR-3 ovarian) of 28.1 µM. For the same compound, the TGI (HCT-116 colon) was 27 µM, the TGI (UACC-257 melanoma) was 41.8 µM and the TGI (SR leukemia) was 21 µM. For the same compound, the TGI (HT29 colon) was 37.5 µM, the TGI (NCI-H226 lung) was 65.6 µM and the TGI (COLO 205 colon) was 33.4 µM. The TGI (U251 CNS) was 34.9 µM, the TGI (M14 melanoma) was 30.5 µM and the TGI (LOX IMVI melanoma) was 25.6 µM. For the same compound, the TGI (T-47D breast) was 53.6 µM, the TGI (SK-MEL-2 melanoma) was 37.7 µM and the TGI (SW-620 colon) was 34.6 µM. It also gave a TGI (K-562 leukemia) of 32.2 µM, a TGI (SNB-75 CNS) of 41.3 µM and a TGI (OVCAR-4 ovarian) of 31.4 µM. The TGI (HL-60(TB) leukemia) was 24.2 µM, the TGI (IGROV1 ovarian) was 39.6 µM and the TGI (DU-145 prostate) was 32 µM. The TGI (MDA-MB-435) was 34.4 µM.
